Values of other authors as cited in patent US20260337190A1, “CRYSTAL FORM OF PYRIDINOPYRIMIDINONE COMPOUND, ACID SALT THEREOF, CRYSTAL FORM OF ACID SALT THEREOF, AND USE” (Wuhan Humanwell Innovative Drug Research and Development …, priority 2022, published 2026).

System: mutated KRAS and wild-type KRAS in tumor cells
Details: cited from earlier work

CNCc1ccccc1-c1csc([C@@H](C)Nc2nc(C)nc3cc(OC)c(OC)cc23)c1 [BAY-293]
reduction of activity of mutated and wild-type KRAS in tumor cells: can effectively reduce the activity of mutated KRAS and wild-type KRAS in tumor cells
